Test system: CD4+ Th1 cells
Experiment: ER peptide library screening: IFN-γ ELISA of supernatants from iDC-CD4+ Th1 co-culture after priming with peptide-pulsed DC1
Format: cell-based, human
Settings: for native ER peptide screening result (immunogenic epitope / candidate sequence): cumulative responses from donors tested, native ER library of 117 peptides (FIG. 7); for immunogenicity (IFN-γ production) / donors with significant increase in IFN-γ production: four healthy normal donor samples; for immunogenicity (IFN-γ production): mutated peptides and native ER peptides side by side (FIG. 9-13, 20); for increase in IFN-γ production: native ER individual peptide screening, second sample (FIG. 6C, 6D)
From the text: 176. We then take this peptide library and proceed with the screening process. Briefly, human autologous monocyte fractions from healthy donors and breast cancer patients are pulsed with class II peptides and are rapidly matured to a type-1 polarized dendritic cell (DC1) through the sequential addition of rhGM-CSF, rhIL-4, rhIFN-γ and LPS. Mature-peptide pulsed DC1's are then put in co-culture with autologous naïve T-cells, where these T-cells are presented with peptides via MHC-II molecules and are polarized to a type-1 effector CD4+ cell through DC1 secretion of IL-12. Additionally, IL-2 is added to the coculture to induce the rapid expansion of CD4+ Th1 cells, after 8-10 days of coculture, the now primed CD4+ Th1 cells are re-stimulated with immature dendritic cells presenting the matching class II peptide or an irrelevant class II negative control. Supernatants from the iDC-CD4+ Th1 co-culture are then screened through IFN-γ ELISA to measure Th1-response. An antigen specific response is considered to be significant as approximately a 2-fold increase in IFN-γ production (pg/mL) compared to the control. The final in vitro screening step is then to do a reverse sensitization. Where the primed CD4 T cells are re-stimulated with immature dendritic cells pulsed with the full tumor antigen in question, or the full protein. This step is important to determine if the identified immunogenic epitope can be recognized by T-cells primed to only a small amino acid sequence apart of the much larger protein.
178. The screening process (FIG. 3) of 10-5-1 is repeated on different samples as well to confirm commonalities in increased responses and reproducibility, ensuring that a response was not donor specific to keep track of common increased responses across donors and ultimately identify those reproducibly immunogenic peptides. The screening procedure follows the same experimental steps as mentioned before, and flows through a successive screening strategy, examining pools of 10 peptides, followed by pools of 5-peptides and eventually as individual peptides. This process allows for the rapid identification of the areas in the full protein sequence that may contain immunogenic peptides, rather than screening all peptides individually.
185. From the 11 noted point mutations, we cross matched their locations within the class II sequences of the ER peptide library. From this, each point mutation was represented in three peptide sequences due to the 10-amino acid overlap between adjacent sequences within the library. This overlap helps to account for binding affinity within the MHC II open binding groove (Table 3) 186. From the 11 mutations, a peptide library of 33 peptides (three sequences per mutation) was created (Table 3). As a comparison, we also screened the corresponding native or un-mutated ER sequences side-by-side to see if the mutation induced an increase in Th1 response compared to the native sequence.

With “QQVPYYLENEPSGYT [P26, native ER library peptide]” as the sequence, how does the “native ER peptide screening result (immunogenic epitope / candidate sequence)” value read?
Its value is “immunogenic”.

What about the “native ER peptide screening result (immunogenic epitope / candidate sequence)” value (listed as 26) of the same sequence?
The value was “candidate sequences”.

For “KNVVPLYDLLLEMLD [P107, native ER library peptide]”, which “immunogenicity (IFN-γ production)” value is on record?
Its value is “not immunogenic”.

Which “native ER peptide screening result (immunogenic epitope / candidate sequence)” value does the source give for “YLENEPSGYTVREAG [P27, native ER library peptide]” here?
Its value is “immunogenic”.

What about the “native ER peptide screening result (immunogenic epitope / candidate sequence)” value (listed as 27) of the same sequence?
Its value is “candidate sequences”.

What about the “increase in IFN-γ production” value of the same sequence?
The value was “approximately 1.4 fold”.

“YSMKCKNVVPLYDLL [P106, native ER library peptide]” was tested. Which “immunogenicity (IFN-γ production)” value did it give?
Its value is “not immunogenic”.

What does the source list for “AKAGLTLQQQHQRLA [P99, native ER library peptide]”?
native ER peptide screening result (immunogenic epitope / candidate sequence): immunogenic; native ER peptide screening result (immunogenic epitope / candidate sequence) (listed as 99): candidate sequences

“TLHDQVHLLECAWLE [P75, native ER library peptide]” was tested. Which “immunogenicity (IFN-γ production)” value did it give?
The value was “not immunogenic”.

Which “donors with significant increase in IFN-γ production” value does the source give for “FLSSTLKSLEEKDHI [P93, native ER library peptide]” here?
Its value is “two of four donors”.

With “LYDLLLEMLDAHRLH [P108, native ER library peptide]” as the sequence, how does the “immunogenicity (IFN-γ production)” value read?
The value was “not immunogenic”.

“IILLNSGVYTFLSST [P91, native ER library peptide]” was tested. Which “donors with significant increase in IFN-γ production” value did it give?
The value was “two of four donors”.

For “LSHIRHMSNKGMEHL [P103, native ER library peptide]”, which “native ER peptide screening result (immunogenic epitope / candidate sequence)” value is on record?
Its value is “immunogenic”.

And the “native ER peptide screening result (immunogenic epitope / candidate sequence)” value (listed as 103)?
The value was “candidate sequences”.

What about the “increase in IFN-γ production” value of the same sequence?
The value was “almost identical response to 104”.

How did the “native ER peptide screening result (immunogenic epitope / candidate sequence)” value turn out when “HMSNKGMEHLYSMKC [P104, native ER library peptide]” was run?
The value was “immunogenic”.

And the “native ER peptide screening result (immunogenic epitope / candidate sequence)” value (listed as 104)?
The value was “candidate sequences”.

How did the “immunogenicity (IFN-γ production)” value turn out when “GFVDLTLHDQVHLLE [P74, native ER library peptide]” was run?
The value was “not immunogenic”.

Source: patent publication US20240091359A1, “NOVEL ESR1 DERIVED PEPTIDES AND USES THEREOF FOR NEOANTIGEN THERAPY” (H. LEE MOFFITT CANCER CENTER AND RESEARCH INSTITUTE, INC., priority 2021, published 2024)
